Reference: patent publication US9526785B2, “Pharmaceuticals for oral delivery” (Enteris BioPharma, Inc., priority 2013, dated 2016)
“And” between values parts separate entries of the source, which are not always exact repeats. Equal values may be shown once. Read-outs that look alike come from different tables or passages of the source.

Columns and labels:
[1] = Kanamycin and tobramycin plasma PK after IV bolus in dogs; type: in vivo, Beagle dogs
Description: (§1) Adult Beagle dogs weighing approximately 10 to 15 kg were used in the study. The animals were housed at Sinclair Research Center, Columbia, Mo. either individually or in pairs in over-sized dog runs. […] A 12-hour light/12-hour dark photoperiod was maintained. Room temperature was set to be maintained at 20±5° C. Relative humidity was monitored but not controlled. Animal room and pen cleaning were performed according to the testing facility (Sinclair) SOPs.
(§2) Animals were fasted overnight prior to drug administration and throughout the blood collection period.
(§3) Adult female Beagle dogs, weighing 9-15 kg were used in the oral and IV studies. Dogs were fasted overnight before the beginning of each study but were allowed free access to water. On the day of the study, one pre-dose blood sample of 3 mL was collected from each animal.
(§4) After administration of the drug, 3 mL blood samples were collected from the brachial vein at various time-points up to 240 minutes (4 hours) post-administration. Blood samples were collected into new heparinized monovette sampling syringes. The samples were placed on ice before being centrifuged for 10 minutes at approximately 2750 rpm at 2-8° C. Each tube was labeled with the dog ID # and time-point, and they were stored at −20° C. pending shipment.
Plasma samples were diluted appropriately with the kit assay buffer.
The maximum plasma concentration (Cmax) values and their times of occurrence (Tmax) were obtained directly from the plasma concentration vs. time profiles. The areas under the plasma concentration-time curves (AUClast) were estimated by the linear trapezoidal rule from time zero to the time of the last observed plasma concentration.

in vivo = details: female, beagle, dog, po
Description: as §1, §2, §3, §4
Plasma samples were diluted appropriately with the kit assay buffer. […]

[2] = female, beagle, dog, in vivo, iv, 0.1 mg

NC[C@H]1O[C@H](O[C@H]2[C@H](O)[C@@H](O[C@H]3O[C@H](CO)[C@@H](O)[C@H](N)[C@H]3O)[C@H](N)C[C@@H]2N)[C@H](O)[C@@H](O)[C@@H]1O [Kanamycin]
concentration at 0 min ([1]; female, Beagle, dog, plasma, iv, 0.1 mg, single IV bolus 0.10 mg, 0 min, read-out: Plasma Concentration, Mean): 0 ng/mL
concentration at 0 min ([1]; female, Beagle, dog, plasma, iv, 0.1 mg, single IV bolus 0.10 mg, 0 min, read-out: Plasma Concentration, individual dogs): 0 ng/mL
concentration at 5 min ([1]; female, Beagle, dog, plasma, iv, 0.1 mg, single IV bolus 0.10 mg, 5 min): 40.8 ng/mL
concentration at 10 min ([1]; female, Beagle, dog, plasma, iv, 0.1 mg, single IV bolus 0.10 mg, 10 min): 38.6 ng/mL
concentration at 15 min ([1]; female, Beagle, dog, plasma, iv, 0.1 mg, single IV bolus 0.10 mg, 15 min): 40.3 ng/mL
concentration at 20 min ([1]; female, Beagle, dog, plasma, iv, 0.1 mg, single IV bolus 0.10 mg, 20 min): 32.1 ng/mL
concentration at 30 min ([1]; female, Beagle, dog, plasma, iv, 0.1 mg, single IV bolus 0.10 mg, 30 min): 34.6 ng/mL
concentration at 40 min ([1]; female, Beagle, dog, plasma, iv, 0.1 mg, single IV bolus 0.10 mg, 40 min, read-out: Plasma Concentration, Mean): 27.2 ng/mL
concentration at 40 min ([1]; female, Beagle, dog, plasma, iv, 0.1 mg, single IV bolus 0.10 mg, 40 min, read-out: Plasma Concentration, individual dogs): 29.9 ng/mL
concentration at 60 min ([1]; female, Beagle, dog, plasma, iv, 0.1 mg, single IV bolus 0.10 mg, 60 min, read-out: Plasma Concentration, Mean): 25.6 ng/mL
concentration at 60 min ([1]; female, Beagle, dog, plasma, iv, 0.1 mg, single IV bolus 0.10 mg, 60 min, read-out: Plasma Concentration, individual dogs): 31 ng/mL
concentration at 90 min ([1]; female, Beagle, dog, plasma, iv, 0.1 mg, single IV bolus 0.10 mg, 90 min): 9.24 ng/mL
concentration at 120 min ([1]; female, Beagle, dog, plasma, iv, 0.1 mg, single IV bolus 0.10 mg, 120 min): 10 ng/mL
concentration at 240 min ([1]; female, Beagle, dog, plasma, iv, 0.1 mg, single IV bolus 0.10 mg, 240 min): 1.61 ng/mL
AUC ([1]; female, Beagle, dog, plasma, iv, 0.1 mg, single IV bolus 0.10 mg, read-out: AUC, Mean (converted)): 54.2 ng·h/mL
AUC ([1]; female, Beagle, dog, plasma, iv, 0.1 mg, single IV bolus 0.10 mg, read-out: AUC, individual dogs (converted)): 46.5 ng·h/mL
Cmax ([1]; female, Beagle, dog, plasma, iv, 0.1 mg, single IV bolus 0.10 mg, read-out: Cmax, Mean): 50 ng/mL
AUC, individual dogs ([1]; single IV bolus 0.10 mg): 3806 ng·min/mL and 3169 ng·min/mL
Cmax, Mean ([1]; single IV bolus 0.10 mg): 50.21 ng/mL
Cmax, individual dogs ([1]; single IV bolus 0.10 mg): 77.73 ng/mL and 54.88 ng/mL and 18.01 ng/mL
Tmax, individual dogs ([1]; single IV bolus 0.10 mg): 15 min and 60 min
Plasma Concentration, individual dogs ([1]; single IV bolus 0.10 mg, 0 min): 0 ng/mL
Plasma Concentration, individual dogs ([1]; single IV bolus 0.10 mg, 5 min): 77.73 ng/mL and 40.56 ng/mL and 3.97 ng/mL
Plasma Concentration, individual dogs ([1]; single IV bolus 0.10 mg, 10 min): 37.75 ng/mL and 7.52 ng/mL
Plasma Concentration, individual dogs ([1]; single IV bolus 0.10 mg, 15 min): 9.70 ng/mL
Plasma Concentration, individual dogs ([1]; single IV bolus 0.10 mg, 20 min): 39.87 ng/mL and 14.59 ng/mL
Plasma Concentration, individual dogs ([1]; single IV bolus 0.10 mg, 30 min): 43.81 ng/mL and 42.52 ng/mL and 17.48 ng/mL
Plasma Concentration, individual dogs ([1]; single IV bolus 0.10 mg, 40 min): 34.08 ng/mL and 17.58 ng/mL
Plasma Concentration, individual dogs ([1]; single IV bolus 0.10 mg, 60 min): 27.79 ng/mL and 18.01 ng/mL
Plasma Concentration, individual dogs ([1]; single IV bolus 0.10 mg, 90 min): 0 ng/mL and 9.81 ng/mL and 17.91 ng/mL
Plasma Concentration, individual dogs ([1]; single IV bolus 0.10 mg, 120 min): 0 ng/mL and 13.36 ng/mL and 16.63 ng/mL
Plasma Concentration, individual dogs ([1]; single IV bolus 0.10 mg, 240 min): 0 ng/mL (2×) and 4.84 ng/mL

NC[C@H]1O[C@H](O[C@H]2[C@H](O)[C@@H](O[C@H]3O[C@H](CO)[C@@H](O)[C@H](N)[C@H]3O)[C@H](N)C[C@@H]2N)[C@H](N)C[C@@H]1O [Tobramycin]
AUC ([1]; female, Beagle, dog, in vivo, iv, 0.1 mg, AUC, Mean): 29.7 ng·h/mL
Cmax ([1]; female, Beagle, dog, in vivo, iv, 0.1 mg, Cmax, individual dogs): 38.4 ng/mL
Tmax ([1]; female, Beagle, dog, in vivo, iv, 0.1 mg, individual dogs): 5 min
Cmax, Mean [1, 2]: 31.22 ng/mL
Tmax, individual dogs [1, 2]: 5 min
Cmax ([1]; female, beagle, dog, in vivo, iv, 0.1 mg, Cmax, Mean): 31 ng/mL
Tmax ([1]; female, beagle, dog, in vivo, iv, 0.1 mg, Mean): 5 min
bioavailability (in vivo): 15%
